The values below come from patent publication US11578130B2, “Regulatable chimeric antigen receptor” (Novartis AG, priority 2013, dated 2023).

The subject of assay [1] is Jurkat cells with NFAT-LUC reporter (JNL). Kind of assay: Activation assay of redirected inhibitory RCAR (PD1 RCAR, FRB-FKBP switch) on PDL1-Fc. It is filed as cell-based. The procedure:
Jurkat cells with NFAT-LUC reporter (JNL) were grown to the density of 0.5×10^6/ml in Jurkat cell growth media with puromycin at 0.5 μg/ml. For each transfection 3×10^6 cells were spin down at 100 g for 10 minutes. Four μg DNA per construct were used per transfection. Amaxa Nucleofector solution V and supplement I was mixed and 100 μl was added into the tube with DNA construct. The mixture was then added to the cells and transferred to the electroporation cuvette. Electroporation was done under setting X-001 using Amaxa Nucleofector II Device. 0.5 ml of growth media was added immediately after electroporation and the mixture were transferred into 2 ml growth media in one well of the 6-well plate. After two hours, the rapalogue compound at various concentrations was added to cells. The cells were applied to tissue culture plate wells that were coated by the target. Tissue culture plate was coated with 5 μg/ml of PDL1-Fc or IgG1-Fc or any target for 2 hrs at 37° C., then blocked with the blocking buffer (DPBS with 5% serum) for 30 minutes. The transfected cells were added to the target plate with 100 μl per well and incubated further for 16 hrs. Luciferase One Glo reagent 100 μl was added per well. The samples were incubated for 5 min at 37° C. and then luminescence is measured using Envision plate reader. […]

For another assay, the target named is mTOR (Homo sapiens, UniProt P42345). To be noted: low concentration; cited from earlier work.
The subject of a further assay is PI3K/mTOR. As to conditions: relatively higher concentrations; cited from earlier work.
In the next assay the test system is JNL cells. Kind of assay: Single vector CD19 RCAR constructs in JNL cells, NFAT reporter activation by dimerization molecule. It is filed as cell-based. As to conditions: nM to sub-nM doses. The source says: The constructs and viral particles were made and tested essentially as described in Example 11. Viral particles were introduced into JNL cells and evaluated for activity essentially as described in Example 1 except that the target was CD19 (as opposed to EGFRviii).
Construct 143775 was introduced into cells and the affect of dimerization molecule concentration on activation evaluated essentially as described in Example 14.

Assay [2] concerns the target biotinylated FKBP, FLAG FRB protein and everolimus. Kind of assay: AlphaLISA direct binding assay, FLAG FRB proteins with biotinylated FKBP and titrated everolimus. As to conditions: everolimus serial diluted from 600 nM; 30 nM biotinylated FKBP and each FLAG FRB protein. The procedure: FRB mutations were also ranked in an alternative assay format. Briefly, FRB proteins incorporating single and double mutations (SEQ ID NO: 319-323) were produced as FLAG tagged constructs in E. coli as described previously. 30 nM (final) of biotinylated FKBP (SEQ ID NO: 324) and each FLAG FRB protein were combined in the presence of everolimus serial diluted 1:3 from a starting final concentration of 600 nM into a 96 well ½ surface flat-bottom plate (PerkinElmer) and incubated for one hour at room temperature. All dilutions were made in 1× AlphaLISA Immunoassay buffer (PerkinElmer). Anti-Flag acceptor beads (PerkinElmer) were added at 10ug/ml final concentration and incubated for one hour at room temperature. Streptavidin donor beads (PerkinElmer), were then added at a final concentration of 40ug/ml and the plate was protected from light and incubated for 30 minutes at room temperature. The plate was then read on the PerkinElmer EnVision Multiplate reader equipped with the Alpha Module using excitation of 680 nm and a 570 nm Emission filter.

The test system of assay [3] is Jurkat cells with NFAT-LUC reporter (JNL). The experiment in a line: NFAT activation assay, 9E10 anti-myc scFv RCAR with c-myc peptide multimers. As to conditions: myc tags at 100 nM, 18 hr; compared with lower multimers. It is filed as cell-based. The procedure:
Jurkat cells with NFAT-LUC reporter (JNL) were grown to the density of 0.5×10^6/ml in Jurkat cell growth media with puromycin at 0.5 μg/ml. For each transfection 2.5×10^6 cells were spin down at 100 g for 10 minutes. Two μg of DNA per construct were used per transfection. Amaxa Nucleofector solution V and supplement I was mixed and 100 μl was added into the tube with DNA construct. The mixture was then added to the cells and transferred to the electroporation cuvette. Electroporation was done under setting X-001 using Amaxa Nucleofector II Device. 0.5 ml of growth media was added immediately after electroporation and the mixture were transferred into 2 ml growth media in one well of the 6-well plate and incubated for two hours. For myc tags in solution, the cells were distributed into 96-wells, monomer, dimer, trimer or tetramer myc tags or IgG1 Fc were applied at 100 nM. The cells were incubated for 18 hr. Alternatively, tissue culture plate was coated with 100 nM of various myc tags or IgG1 Fc for two hours, blocked with the blocking buffer (DPBS with 5% serum) for 1 hour. The transfected cells were added to the target plate with 100 μl per well and incubated for 18 hrs. Luciferase One Glo reagent 100 μl was added per well. The samples were incubated for 5 min at 37° C. and then luminescence is measured using Envision plate reader.

As for `CO[C@H]1[C@@H](O)[C@H](C)C[C@H](C)/C=C/C=C/C=C(\C)[C@@H](c2c[nH]c3c(C)cccc23)C[C@@H]2CC[C@@H](C)[C@@](O)(O2)C(=O)C(=O)N2CCCC[C@H]2C(=O)O[C@H]([C@H](C)C[C@@H]2CC[C@@H](O)[C@H](OC)C2)C[C@H](O)[C@H](C)/C=C(\C)[C@H]1O` [AP21967], the “induction of NFAT signaling by PDL-1 target” value in assay [1] (PD1 RCAR (PD1-ECD-TM-FRB and FKBP-4 1BB-CD3 zeta), 500 nM AP21967) is recorded as “significant induction of signaling”. The “potency in inducing dimerization of the heterodimerization switch, activation of NFAT signaling” value in assay [1] (PD1 RCAR, varying concentrations of AP21967, dose response) is “potent even at sub nM concentration”.

Turning to `Cn1c(=O)n(-c2ccc(C(C)(C)C#N)cc2)c2c3cc(-c4cnc5ccccc5c4)ccc3ncc21` [BEZ235, 2-methyl-2-[4-(3-methyl-2-oxo-8-quinolin-3-yl-2,3-dihydro-imidazo[4,5-c]quinolin-1-yl)-phenyl]-propionitrile], the “concentration at which mTOR inhibition predominates” value on mTOR is “less than 100 nmol/L”. In the assay with PI3K/mTOR, the “concentration of dual PI3K/mTOR inhibition” value is “approximately 500 nmol/L”.

As to `CO[C@H]1C[C@@H]2CC[C@@H](C)[C@@](O)(O2)C(=O)C(=O)N2CCCC[C@H]2C(=O)O[C@H]([C@H](C)C[C@@H]2CC[C@@H](O)[C@H](OC)C2)CC(=O)[C@H](C)/C=C(\C)[C@@H](O)[C@@H](OC)C(=O)[C@H](C)C[C@H](C)/C=C/C=C/C=C/1C` [rapamycin], the “activation of RCAR (Construct 143775) over dimerization molecule concentration” value in the assay with JNL cells was “effective at a broad range of concentrations”.

As to “E2032I: FRB point mutant; SEQ ID NO: 313 (competition assay), SEQ ID NO: 319 (direct binding assay)”, the EC50 in assay [2] is 2.46 nM. That is a single-digit nanomolar value.

In assay [2], “E2032L: FRB point mutant; SEQ ID NO: 314 (competition assay), SEQ ID NO: 320 (direct binding assay)” showed an EC50 of 2.15 nM.

Consider “T2098L: FRB point mutant; SEQ ID NO: 315 (competition assay), SEQ ID NO: 321 (direct binding assay)”, for which the EC50 in assay [2] came out at 1.44 nM. This EC50 and that of the molecule before are within 1.5-fold of each other.

“Wild type FRB: His-FRB SEQ ID NO: 312 in competition assay; His-FLAG-FRB SEQ ID NO: 318 in direct binding assay”: in assay [2], the EC50 came to 3.9 nM.

B1: EEQKLISEEDLGGGGSGGGGSGGGGSEEQKLISEEDLGGGGSGGGGSGGGGSEEQKLISEEDLGGGGSGGGGSGGGGSEEQKLISEEDL (peptide)
chain: EEQKLISEEDLGGGGSGGGGSGGGGSEEQKLISEEDLGGGGSGGGGSGGGGSEEQKLISEEDLGGGGSGGGGSGGGGSEEQKLISEEDL
As to B1, the “NFAT activation by myc tag multimers” value in assay [3] was “Higher NFAT activation”.

B2: EEQKLISEEDLGGGGSGGGGSGGGGSEEQKLISEEDLGGGGSGGGGSGGGGSEEQKLISEEDL (peptide)
chain: EEQKLISEEDLGGGGSGGGGSGGGGSEEQKLISEEDLGGGGSGGGGSGGGGSEEQKLISEEDL
With B2, in assay [3], the “NFAT activation by myc tag multimers” value is “Higher NFAT activation”.
